Earlier results, collected in patent US20070082064A1, “Nutritional or dietary supplement for the treatment of macular degeneration” (priority 2005, published 2007).

For vitamin E, the risk of death (daily dose of 200 IU per day) is listed as “no increased risk of death” and the “risk of death higher than among those taking placebos” value (daily doses of 400 IU or more, meta-analysis of 19 trials, more than 136,000 patients) is listed as “about 10%”.
